Data from ChEMBL document CHEMBL1909046, “DrugMatrix in vitro pharmacology data”.

Each compound was assayed against T1, C-X-C chemokine receptor type 1 (Homo sapiens, UniProt P25024) (assay: not given). Settings: not given.
T1 sequence (P25024 whole entry): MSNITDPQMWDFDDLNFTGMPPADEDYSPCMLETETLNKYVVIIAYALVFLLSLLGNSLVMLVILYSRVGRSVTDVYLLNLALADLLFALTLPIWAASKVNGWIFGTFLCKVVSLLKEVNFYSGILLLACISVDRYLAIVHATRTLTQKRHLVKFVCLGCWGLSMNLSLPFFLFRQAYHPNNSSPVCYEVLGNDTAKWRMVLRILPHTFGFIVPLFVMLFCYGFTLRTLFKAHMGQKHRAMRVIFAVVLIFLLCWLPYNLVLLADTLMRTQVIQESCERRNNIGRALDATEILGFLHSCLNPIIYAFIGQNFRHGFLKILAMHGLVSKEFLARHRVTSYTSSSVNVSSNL

Row | Structure (SMILES) | IC50
1 | CCCCC(=O)N(Cc1ccc(-c2ccccc2-c2nnn[nH]2)cc1)[C@H](C(=O)O)C(C)C | Not Active
2 | O=C(O)COc1ccc(C(=O)c2cccs2)c(Cl)c1Cl | Not Active
3 | CN1[C@@H]2CC[C@H]1C[C@@H](OC(c1ccccc1)c1ccccc1)C2 [BENZTROPINE] | Not Active
4 | C[C@@](Cc1ccc(O)c(O)c1)(NN)C(=O)O.O [CARBIDOPA] | Not Active
5 | CN1CCN(C2=Nc3cc(Cl)ccc3Nc3ccccc32)CC1 [CLOZAPINE] | Not Active

Each compound was assayed against Prostaglandin G/H synthase 1 (Homo sapiens, UniProt P23219) (assay: biochemical). Settings: platelet.
Chain of Prostaglandin G/H synthase 1 (P23219 whole entry): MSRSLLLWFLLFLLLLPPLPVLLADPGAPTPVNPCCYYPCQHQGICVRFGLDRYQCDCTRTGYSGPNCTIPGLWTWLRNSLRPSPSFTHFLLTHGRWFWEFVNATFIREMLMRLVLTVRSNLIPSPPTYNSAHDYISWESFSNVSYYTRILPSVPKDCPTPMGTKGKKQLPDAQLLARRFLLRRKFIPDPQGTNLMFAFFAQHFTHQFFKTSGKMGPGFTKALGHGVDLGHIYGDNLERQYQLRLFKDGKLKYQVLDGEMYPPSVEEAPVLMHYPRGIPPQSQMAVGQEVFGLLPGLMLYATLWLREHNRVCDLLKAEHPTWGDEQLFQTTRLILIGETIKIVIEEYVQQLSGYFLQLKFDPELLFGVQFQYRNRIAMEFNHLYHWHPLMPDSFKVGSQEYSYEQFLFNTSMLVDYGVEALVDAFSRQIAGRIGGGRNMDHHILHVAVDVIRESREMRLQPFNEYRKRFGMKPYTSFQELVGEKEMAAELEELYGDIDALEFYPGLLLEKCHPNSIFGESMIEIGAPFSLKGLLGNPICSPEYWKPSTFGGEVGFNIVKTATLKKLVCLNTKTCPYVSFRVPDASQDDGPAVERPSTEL
Type: tissue-based, Platelet

Row | Structure (SMILES) | IC50
6 | CCCCC(=O)N(Cc1ccc(-c2ccccc2-c2nnn[nH]2)cc1)[C@H](C(=O)O)C(C)C | Not Active
7 | O=C(O)COc1ccc(C(=O)c2cccs2)c(Cl)c1Cl | Not Active
8 | CN1[C@@H]2CC[C@H]1C[C@@H](OC(c1ccccc1)c1ccccc1)C2 [BENZTROPINE] | Not Active
9 | C[C@@](Cc1ccc(O)c(O)c1)(NN)C(=O)O.O [CARBIDOPA] | Not Active
10 | CN1CCN(C2=Nc3cc(Cl)ccc3Nc3ccccc32)CC1 [CLOZAPINE] | Not Active

What follows are compounds tested against Insulin receptor (Rattus norvegicus, UniProt P15127) (assay: not given). Settings: not given.
Chain of Insulin receptor (P15127 27-759 limits assumed): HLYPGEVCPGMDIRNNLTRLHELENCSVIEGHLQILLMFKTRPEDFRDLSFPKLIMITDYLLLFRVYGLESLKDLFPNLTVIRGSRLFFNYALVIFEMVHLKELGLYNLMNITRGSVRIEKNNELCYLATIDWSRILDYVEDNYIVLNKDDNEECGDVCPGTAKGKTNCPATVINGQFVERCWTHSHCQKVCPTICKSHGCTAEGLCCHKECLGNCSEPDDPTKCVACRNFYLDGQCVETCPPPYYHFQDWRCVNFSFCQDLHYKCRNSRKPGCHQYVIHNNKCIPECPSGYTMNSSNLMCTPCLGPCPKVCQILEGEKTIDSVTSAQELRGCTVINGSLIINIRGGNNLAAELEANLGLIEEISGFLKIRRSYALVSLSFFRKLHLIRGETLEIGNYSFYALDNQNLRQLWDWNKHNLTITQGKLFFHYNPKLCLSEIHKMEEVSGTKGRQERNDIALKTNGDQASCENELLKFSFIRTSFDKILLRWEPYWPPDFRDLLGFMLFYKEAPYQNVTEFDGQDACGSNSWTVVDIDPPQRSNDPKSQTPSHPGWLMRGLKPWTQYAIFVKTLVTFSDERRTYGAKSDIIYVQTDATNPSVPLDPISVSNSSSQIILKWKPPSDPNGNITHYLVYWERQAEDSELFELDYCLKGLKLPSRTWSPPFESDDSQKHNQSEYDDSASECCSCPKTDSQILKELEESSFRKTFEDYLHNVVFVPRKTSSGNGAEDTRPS
Chain of Insulin receptor (P15127 764-1383 limits assumed): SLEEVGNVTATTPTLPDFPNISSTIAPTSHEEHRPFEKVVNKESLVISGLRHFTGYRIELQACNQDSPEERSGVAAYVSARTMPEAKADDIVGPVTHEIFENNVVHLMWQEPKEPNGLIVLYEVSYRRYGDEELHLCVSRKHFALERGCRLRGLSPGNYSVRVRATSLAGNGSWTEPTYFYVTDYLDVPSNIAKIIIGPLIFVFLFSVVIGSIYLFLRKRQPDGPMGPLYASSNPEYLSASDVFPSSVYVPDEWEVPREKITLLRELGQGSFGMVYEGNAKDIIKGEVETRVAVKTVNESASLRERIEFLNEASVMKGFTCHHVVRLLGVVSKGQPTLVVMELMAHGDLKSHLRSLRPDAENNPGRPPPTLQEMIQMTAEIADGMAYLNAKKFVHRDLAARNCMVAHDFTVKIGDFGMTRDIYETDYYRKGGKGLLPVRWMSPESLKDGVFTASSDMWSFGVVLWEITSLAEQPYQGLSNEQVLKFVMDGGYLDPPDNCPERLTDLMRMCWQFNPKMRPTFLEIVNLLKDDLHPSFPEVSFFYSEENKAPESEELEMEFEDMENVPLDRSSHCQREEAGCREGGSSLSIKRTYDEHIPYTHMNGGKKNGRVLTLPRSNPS
Type: cell membranes, Wistar, Liver, Membrane

Row | Structure (SMILES) | IC50
11 | CCCCC(=O)N(Cc1ccc(-c2ccccc2-c2nnn[nH]2)cc1)[C@H](C(=O)O)C(C)C | Not Active
12 | O=C(O)COc1ccc(C(=O)c2cccs2)c(Cl)c1Cl | Not Active
13 | CN1[C@@H]2CC[C@H]1C[C@@H](OC(c1ccccc1)c1ccccc1)C2 [BENZTROPINE] | Not Active
14 | C[C@@](Cc1ccc(O)c(O)c1)(NN)C(=O)O.O [CARBIDOPA] | Not Active
15 | CN1CCN(C2=Nc3cc(Cl)ccc3Nc3ccccc32)CC1 [CLOZAPINE] | Not Active

The compounds below were run against T2, Neuropeptide Y receptor type 1 (Homo sapiens, UniProt P25929) (assay: not given). Settings: sk-n-mc.
T2 sequence (P25929 whole entry): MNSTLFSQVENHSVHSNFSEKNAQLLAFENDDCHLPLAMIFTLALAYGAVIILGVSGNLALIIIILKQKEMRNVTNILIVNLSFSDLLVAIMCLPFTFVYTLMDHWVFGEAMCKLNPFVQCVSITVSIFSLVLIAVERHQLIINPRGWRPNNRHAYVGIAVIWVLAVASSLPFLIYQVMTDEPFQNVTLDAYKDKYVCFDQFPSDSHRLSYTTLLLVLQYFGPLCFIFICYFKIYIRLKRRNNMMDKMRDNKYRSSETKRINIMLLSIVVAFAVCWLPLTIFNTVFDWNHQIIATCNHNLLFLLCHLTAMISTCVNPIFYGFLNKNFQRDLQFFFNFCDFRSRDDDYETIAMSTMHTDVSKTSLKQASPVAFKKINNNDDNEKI
Type: cell membranes, Membrane

Row | Structure (SMILES) | IC50
16 | CCCCC(=O)N(Cc1ccc(-c2ccccc2-c2nnn[nH]2)cc1)[C@H](C(=O)O)C(C)C | Not Active
17 | O=C(O)COc1ccc(C(=O)c2cccs2)c(Cl)c1Cl | Not Active
18 | CN1[C@@H]2CC[C@H]1C[C@@H](OC(c1ccccc1)c1ccccc1)C2 [BENZTROPINE] | Not Active
19 | C[C@@](Cc1ccc(O)c(O)c1)(NN)C(=O)O.O [CARBIDOPA] | Not Active
20 | CN1CCN(C2=Nc3cc(Cl)ccc3Nc3ccccc32)CC1 [CLOZAPINE] | Not Active

These compounds were tested against Nitric oxide synthase 1 (Rattus norvegicus, UniProt P29476) (assay: not given). Settings: not given.
Chain of Nitric oxide synthase 1 (P29476 whole entry): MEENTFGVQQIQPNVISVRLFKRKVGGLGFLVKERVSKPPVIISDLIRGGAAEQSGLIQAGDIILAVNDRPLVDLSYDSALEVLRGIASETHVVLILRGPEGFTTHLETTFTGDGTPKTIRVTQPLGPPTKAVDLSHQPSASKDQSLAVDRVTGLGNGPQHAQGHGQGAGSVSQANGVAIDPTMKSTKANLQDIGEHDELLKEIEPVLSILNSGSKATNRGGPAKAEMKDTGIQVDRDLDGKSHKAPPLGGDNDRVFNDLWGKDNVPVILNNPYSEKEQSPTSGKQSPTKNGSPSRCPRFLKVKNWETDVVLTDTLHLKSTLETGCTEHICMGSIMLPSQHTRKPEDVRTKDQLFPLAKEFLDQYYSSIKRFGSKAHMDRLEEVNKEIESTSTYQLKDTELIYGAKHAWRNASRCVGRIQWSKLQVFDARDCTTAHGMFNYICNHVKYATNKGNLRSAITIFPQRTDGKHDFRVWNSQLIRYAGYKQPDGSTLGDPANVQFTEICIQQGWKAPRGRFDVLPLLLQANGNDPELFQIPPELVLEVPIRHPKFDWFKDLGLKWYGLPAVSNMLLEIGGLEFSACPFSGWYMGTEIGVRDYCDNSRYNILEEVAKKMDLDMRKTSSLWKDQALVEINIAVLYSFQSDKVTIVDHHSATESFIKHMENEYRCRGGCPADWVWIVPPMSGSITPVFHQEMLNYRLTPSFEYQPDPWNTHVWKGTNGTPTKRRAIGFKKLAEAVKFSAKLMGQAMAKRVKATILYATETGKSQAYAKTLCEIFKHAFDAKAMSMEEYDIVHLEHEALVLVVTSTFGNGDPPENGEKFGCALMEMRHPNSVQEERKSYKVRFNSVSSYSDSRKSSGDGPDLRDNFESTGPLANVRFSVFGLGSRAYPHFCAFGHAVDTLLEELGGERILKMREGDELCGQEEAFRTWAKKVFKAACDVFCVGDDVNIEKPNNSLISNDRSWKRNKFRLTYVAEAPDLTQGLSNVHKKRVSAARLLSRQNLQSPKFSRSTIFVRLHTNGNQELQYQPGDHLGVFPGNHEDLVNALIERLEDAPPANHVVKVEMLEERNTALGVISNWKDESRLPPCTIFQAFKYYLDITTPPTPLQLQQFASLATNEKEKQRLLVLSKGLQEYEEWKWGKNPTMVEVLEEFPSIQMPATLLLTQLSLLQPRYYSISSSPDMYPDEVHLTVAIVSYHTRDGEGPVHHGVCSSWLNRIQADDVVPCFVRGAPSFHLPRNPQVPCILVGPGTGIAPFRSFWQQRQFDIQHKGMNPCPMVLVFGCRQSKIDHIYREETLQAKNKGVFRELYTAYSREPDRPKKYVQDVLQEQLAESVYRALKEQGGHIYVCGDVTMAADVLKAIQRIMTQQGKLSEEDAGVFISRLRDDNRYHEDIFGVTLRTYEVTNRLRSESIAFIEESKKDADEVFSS
Type: tissue-based, Cerebellum

Row | Structure (SMILES) | IC50
21 | CCCCC(=O)N(Cc1ccc(-c2ccccc2-c2nnn[nH]2)cc1)[C@H](C(=O)O)C(C)C | Not Active
22 | O=C(O)COc1ccc(C(=O)c2cccs2)c(Cl)c1Cl | Not Active
23 | CN1[C@@H]2CC[C@H]1C[C@@H](OC(c1ccccc1)c1ccccc1)C2 [BENZTROPINE] | Not Active
24 | C[C@@](Cc1ccc(O)c(O)c1)(NN)C(=O)O.O [CARBIDOPA] | Not Active
25 | CN1CCN(C2=Nc3cc(Cl)ccc3Nc3ccccc32)CC1 [CLOZAPINE] | Not Active

These compounds were tested against Mitogen-activated protein kinase 1 (Homo sapiens, UniProt P28482) (assay: DRUGMATRIX: Protein Serine/Threonine Kinase, ERK2 enzyme inhibition (substrate: Myelin Basic Protein)). Settings: Not Active = under 50% inhibition at 10 µM.
Chain of Mitogen-activated protein kinase 1 (P28482 whole entry): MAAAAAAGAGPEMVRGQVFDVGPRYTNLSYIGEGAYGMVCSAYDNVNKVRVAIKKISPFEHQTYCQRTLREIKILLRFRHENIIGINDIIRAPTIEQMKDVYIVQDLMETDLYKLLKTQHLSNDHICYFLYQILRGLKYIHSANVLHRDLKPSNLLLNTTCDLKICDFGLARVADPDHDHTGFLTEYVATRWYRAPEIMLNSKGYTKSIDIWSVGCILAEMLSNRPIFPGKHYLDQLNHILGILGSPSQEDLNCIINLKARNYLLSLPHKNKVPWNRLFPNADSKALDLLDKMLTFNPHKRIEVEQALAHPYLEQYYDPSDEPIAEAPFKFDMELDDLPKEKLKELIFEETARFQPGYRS
Design: species or system Escherichia coli

Row | Structure (SMILES) | IC50
26 | CCCCC(=O)N(Cc1ccc(-c2ccccc2-c2nnn[nH]2)cc1)[C@H](C(=O)O)C(C)C | Not Active
27 | O=C(O)COc1ccc(C(=O)c2cccs2)c(Cl)c1Cl | Not Active
28 | CN1[C@@H]2CC[C@H]1C[C@@H](OC(c1ccccc1)c1ccccc1)C2 [BENZTROPINE] | Not Active
29 | C[C@@](Cc1ccc(O)c(O)c1)(NN)C(=O)O.O [CARBIDOPA] | Not Active
30 | CN1CCN(C2=Nc3cc(Cl)ccc3Nc3ccccc32)CC1 [CLOZAPINE] | Not Active

These compounds were tested against T3, Receptor-type tyrosine-protein phosphatase C (Homo sapiens, UniProt P08575) (assay: not given). Settings: not given.
T3 sequence (P08575 whole entry): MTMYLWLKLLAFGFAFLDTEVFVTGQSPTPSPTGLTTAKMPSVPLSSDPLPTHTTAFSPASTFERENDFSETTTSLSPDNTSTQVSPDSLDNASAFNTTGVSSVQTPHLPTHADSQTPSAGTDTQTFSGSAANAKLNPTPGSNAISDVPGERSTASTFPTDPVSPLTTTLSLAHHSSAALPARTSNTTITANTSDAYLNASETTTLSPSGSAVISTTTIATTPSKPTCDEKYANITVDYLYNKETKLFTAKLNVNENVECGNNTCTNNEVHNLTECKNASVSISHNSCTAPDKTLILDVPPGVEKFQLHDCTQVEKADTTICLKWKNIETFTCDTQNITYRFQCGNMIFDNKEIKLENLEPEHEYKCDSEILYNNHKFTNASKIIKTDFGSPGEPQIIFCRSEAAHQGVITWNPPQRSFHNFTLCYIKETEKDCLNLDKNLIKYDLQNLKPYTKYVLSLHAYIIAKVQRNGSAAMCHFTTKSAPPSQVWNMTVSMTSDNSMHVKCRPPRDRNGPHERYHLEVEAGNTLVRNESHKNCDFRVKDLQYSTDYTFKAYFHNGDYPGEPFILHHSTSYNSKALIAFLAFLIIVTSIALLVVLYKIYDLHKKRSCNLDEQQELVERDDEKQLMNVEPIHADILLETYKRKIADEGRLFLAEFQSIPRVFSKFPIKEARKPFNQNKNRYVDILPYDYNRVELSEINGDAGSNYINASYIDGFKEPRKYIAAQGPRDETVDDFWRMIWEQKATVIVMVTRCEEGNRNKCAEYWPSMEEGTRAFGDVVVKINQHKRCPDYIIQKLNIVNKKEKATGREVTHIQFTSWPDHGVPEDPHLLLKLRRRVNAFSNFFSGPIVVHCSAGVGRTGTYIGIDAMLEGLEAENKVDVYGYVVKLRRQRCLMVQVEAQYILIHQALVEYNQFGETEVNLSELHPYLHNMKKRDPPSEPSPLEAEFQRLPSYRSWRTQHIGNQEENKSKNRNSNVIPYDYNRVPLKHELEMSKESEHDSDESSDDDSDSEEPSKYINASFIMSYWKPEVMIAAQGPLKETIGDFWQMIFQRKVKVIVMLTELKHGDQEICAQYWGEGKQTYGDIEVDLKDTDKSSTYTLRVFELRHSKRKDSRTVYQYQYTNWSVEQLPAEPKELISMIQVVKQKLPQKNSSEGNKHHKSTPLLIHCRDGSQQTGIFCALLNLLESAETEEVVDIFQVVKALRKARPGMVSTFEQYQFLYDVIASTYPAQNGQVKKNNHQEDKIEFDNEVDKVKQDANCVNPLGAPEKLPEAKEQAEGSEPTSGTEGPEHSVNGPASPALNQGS
Design: species or system Escherichia coli

Row | Structure (SMILES) | IC50
31 | CCCCC(=O)N(Cc1ccc(-c2ccccc2-c2nnn[nH]2)cc1)[C@H](C(=O)O)C(C)C | Not Active
32 | O=C(O)COc1ccc(C(=O)c2cccs2)c(Cl)c1Cl | Not Active
33 | CN1[C@@H]2CC[C@H]1C[C@@H](OC(c1ccccc1)c1ccccc1)C2 [BENZTROPINE] | Not Active
34 | C[C@@](Cc1ccc(O)c(O)c1)(NN)C(=O)O.O [CARBIDOPA] | Not Active
35 | CN1CCN(C2=Nc3cc(Cl)ccc3Nc3ccccc32)CC1 [CLOZAPINE] | Not Active

What follows are compounds tested against 5-hydroxytryptamine receptor 1B (Rattus norvegicus, UniProt P28564) (assay: not given). Settings: not given.
Chain of 5-hydroxytryptamine receptor 1B (P28564 whole entry): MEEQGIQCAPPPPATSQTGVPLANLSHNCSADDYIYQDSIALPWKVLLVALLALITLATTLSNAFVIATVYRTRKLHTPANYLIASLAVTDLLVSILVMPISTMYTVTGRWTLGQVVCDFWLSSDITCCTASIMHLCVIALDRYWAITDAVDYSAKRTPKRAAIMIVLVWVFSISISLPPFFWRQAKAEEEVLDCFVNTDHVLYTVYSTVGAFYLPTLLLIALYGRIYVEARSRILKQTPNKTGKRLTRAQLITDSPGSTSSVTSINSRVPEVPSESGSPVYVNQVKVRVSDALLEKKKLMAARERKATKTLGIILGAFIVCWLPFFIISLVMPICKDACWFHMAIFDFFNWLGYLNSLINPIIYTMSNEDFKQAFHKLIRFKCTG
Type: cell membranes, Wistar, Cerebral cortex, Membrane

Row | Structure (SMILES) | IC50
36 | CCCCC(=O)N(Cc1ccc(-c2ccccc2-c2nnn[nH]2)cc1)[C@H](C(=O)O)C(C)C | Not Active
37 | O=C(O)COc1ccc(C(=O)c2cccs2)c(Cl)c1Cl | Not Active
38 | CN1[C@@H]2CC[C@H]1C[C@@H](OC(c1ccccc1)c1ccccc1)C2 [BENZTROPINE] | Not Active
39 | C[C@@](Cc1ccc(O)c(O)c1)(NN)C(=O)O.O [CARBIDOPA] | Not Active
